Where two headings read alike, the source gives them in different places.
Legend:
[1] = molecular target: T1, Aurora-B (Homo sapiens, UniProt Q96GD4); assay: Cell-free kinase assay (ALPHA technology), Aurora-B; type: biochemical
T1 construct: in some cases as full-length kinases, in some cases as truncated fragments; purchased Upstate/Millipore #14-835
Procedure: The kinase reaction was stopped by adding 10 μl of the ALPHA bead mix (10 μg/ml, #6760617/PerkinElmer), pre-incubated with anti-phospho PLK antibody (100 pM, #5070, Cell Signaling), in 25 mM Tris, 200 mM NaCl, 100 mM EDTA and 0.3% BSA, and left to stand overnight. The luminiscence was detected the next morning in a Envision instrument (Perkin Elmer). […] 0% controls contained no ATP whereas the 100% controls contained no test substance. The IC50 values were determined with GraphPadPrism.

[2] = molecular target: T2, Erk2 (Homo sapiens, UniProt P28482); assay: Cell-free kinase assay (ALPHA technology), Erk2; type: biochemical; conditions: for dual activity against Aurora-B and Erk2 (or cRaf-Mek-Erk cascade respectively): in words; for IC50: at 10 μM ATP
T2 construct: in some cases as full-length kinases, in some cases as truncated fragments
Procedure: (§1) The controls were determined 16 fold. 0% controls contained no ATP whereas the 100% controls contained no test substance. The IC50 values were determined with GraphPadPrism.

[3] = molecular target: cRaf-Mek1-Erk2 (Homo sapiens, UniProt P04049+P28482+Q02750); conditions: read-out: IC50 cRaf-Mek-Erk; at 10 μM ATP
Procedure: The inhibitory effect of the inventive compounds was tested on various human serine/threonine kinases and tyrosine kinases in enzymatic assays. Recombinant human kinases, for example Aurora-B, cRaf-Mek1-Erk2, Erk2, Pim-1, HIPK1, KDR, TrkA, Yes, c-Abl and others were used, in some cases as full-length kinases, in some cases as truncated fragments—but at least consisting of the functional kinase domains. The commercial kinase proteins (Proqinase, Millipore) were used as recombinant fusion proteins with GST (glutathione S-transferase) tag or His tag. Depending on the substrate type, the different kinase reactions were quantified by suitable ALPHA™ beads (PerkinElmer).
The calculation of % inhibition values per substance concentration was done by means of the following formula from the raw data determined in the Envision reader:
as §1

[4] = at 10 μM ATP, read-out: IC50 Aurora-B
[5] = read-out: IC50 values against Aurora-B

T1 sequence (Q96GD4 whole entry, the tested form may be a part): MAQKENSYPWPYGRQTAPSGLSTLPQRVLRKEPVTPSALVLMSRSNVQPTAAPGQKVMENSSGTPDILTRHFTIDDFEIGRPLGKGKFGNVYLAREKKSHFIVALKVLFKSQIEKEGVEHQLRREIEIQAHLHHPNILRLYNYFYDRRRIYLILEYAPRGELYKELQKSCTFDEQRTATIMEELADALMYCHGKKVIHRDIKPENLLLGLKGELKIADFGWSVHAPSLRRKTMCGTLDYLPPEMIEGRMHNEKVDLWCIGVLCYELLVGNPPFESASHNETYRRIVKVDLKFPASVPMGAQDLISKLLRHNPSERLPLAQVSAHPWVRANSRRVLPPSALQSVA
Sequence of cRaf-Mek1-Erk2 (P04049 whole entry, the tested form may be a part): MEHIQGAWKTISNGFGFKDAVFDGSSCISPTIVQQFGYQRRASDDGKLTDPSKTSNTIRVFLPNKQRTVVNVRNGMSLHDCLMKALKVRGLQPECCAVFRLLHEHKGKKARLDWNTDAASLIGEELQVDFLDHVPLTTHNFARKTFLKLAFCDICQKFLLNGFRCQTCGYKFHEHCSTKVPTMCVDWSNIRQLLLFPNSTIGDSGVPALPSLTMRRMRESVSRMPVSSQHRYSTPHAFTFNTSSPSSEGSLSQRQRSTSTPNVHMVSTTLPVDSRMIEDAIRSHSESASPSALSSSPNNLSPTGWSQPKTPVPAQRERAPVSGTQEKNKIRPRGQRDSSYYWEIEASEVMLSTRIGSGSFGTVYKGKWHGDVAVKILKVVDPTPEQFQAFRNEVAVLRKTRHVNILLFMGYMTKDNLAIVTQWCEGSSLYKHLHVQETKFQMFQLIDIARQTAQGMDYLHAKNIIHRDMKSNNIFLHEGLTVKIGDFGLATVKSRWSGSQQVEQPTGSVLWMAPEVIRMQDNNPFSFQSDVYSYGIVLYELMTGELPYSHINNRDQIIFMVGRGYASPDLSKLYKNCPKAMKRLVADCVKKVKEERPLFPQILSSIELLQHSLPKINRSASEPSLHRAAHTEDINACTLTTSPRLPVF
Sequence of cRaf-Mek1-Erk2 (Q02750 whole entry, the tested form may be a part): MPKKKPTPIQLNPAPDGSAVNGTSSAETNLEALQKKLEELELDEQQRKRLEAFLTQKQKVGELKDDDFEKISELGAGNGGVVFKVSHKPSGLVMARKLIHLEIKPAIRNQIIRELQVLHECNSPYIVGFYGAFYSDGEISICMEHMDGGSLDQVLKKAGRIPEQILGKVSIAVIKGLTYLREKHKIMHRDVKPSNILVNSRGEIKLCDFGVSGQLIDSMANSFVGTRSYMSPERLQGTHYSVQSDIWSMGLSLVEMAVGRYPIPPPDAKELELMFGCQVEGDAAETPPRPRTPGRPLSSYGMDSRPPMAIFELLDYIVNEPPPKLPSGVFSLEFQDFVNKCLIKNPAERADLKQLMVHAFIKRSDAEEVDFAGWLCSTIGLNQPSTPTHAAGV
Sequence of cRaf-Mek1-Erk2 (P28482 2-360): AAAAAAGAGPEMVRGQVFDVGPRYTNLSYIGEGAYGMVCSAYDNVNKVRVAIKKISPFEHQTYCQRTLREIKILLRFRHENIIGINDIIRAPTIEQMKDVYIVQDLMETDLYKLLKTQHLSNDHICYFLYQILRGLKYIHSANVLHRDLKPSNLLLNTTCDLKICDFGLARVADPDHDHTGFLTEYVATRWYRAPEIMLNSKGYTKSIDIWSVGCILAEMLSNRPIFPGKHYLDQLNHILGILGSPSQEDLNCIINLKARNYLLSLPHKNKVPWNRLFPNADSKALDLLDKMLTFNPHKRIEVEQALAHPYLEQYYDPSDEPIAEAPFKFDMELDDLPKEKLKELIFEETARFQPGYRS
T2 sequence (P28482 whole entry, the tested form may be a part): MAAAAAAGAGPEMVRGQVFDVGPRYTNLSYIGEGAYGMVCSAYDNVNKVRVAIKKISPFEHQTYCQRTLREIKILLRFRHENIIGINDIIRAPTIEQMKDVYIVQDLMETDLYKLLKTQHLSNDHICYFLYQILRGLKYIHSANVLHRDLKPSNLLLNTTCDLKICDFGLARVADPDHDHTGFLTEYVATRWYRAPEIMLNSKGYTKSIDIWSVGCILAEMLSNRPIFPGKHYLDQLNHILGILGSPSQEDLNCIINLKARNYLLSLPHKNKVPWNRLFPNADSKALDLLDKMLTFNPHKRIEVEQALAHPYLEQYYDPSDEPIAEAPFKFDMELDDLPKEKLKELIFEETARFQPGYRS

Row | melting point [°C] | IC50 [1, 4] [nM] | dual activity against Aurora-B and Erk2 (or cRaf-Mek-Erk cascade respectively) [2] | IC50 [3] [µM] | IC50 [2] [µM] | IC50 [1, 5] [nM] | Compound
1 | 264 to 265 | 2230 | dual activity |  |  |  | CCNC(=O)Nc1ccc2ncc(-c3ccc(OC)cc3)cc2n1 [Compound 1, 1-Ethyl-3-[7-(4-methoxy-phenyl)-[1,5]naphthyridin-2-yl]urea]
2 | 218 to 219 | 624 | dual activity |  |  |  | CCNC(=O)Nc1ccc2ncc(-c3ccc(OC)c(OC)c3)cc2n1 [Compound 2, 1-[7-(3,4-Dimethoxy-phenyl)-[1,5]naphthyridin-2-yl]-3-ethyl-urea]
3 | 279 to 280 | 805 | dual activity | 1.12 | 1.72 |  | COc1ccc(-c2cnc3ccc(NC(=O)NC(C)(C)C)nc3c2)cc1OC [Compound 3, 1-tert-Butyl-3-[7-(3,4-dimethoxy-phenyl)-[1,5]naphthyridin-2-yl]-urea]
4 | 286 to 287 | 227 | dual activity |  |  |  | COc1cc(-c2cnc3ccc(NC(=O)NC(C)(C)C)nc3c2)ccc1O [Compound 4, 1-tert-Butyl-3-[7-(4-hydroxy-3-methoxy-phenyl)-[1,5]naphthyridin-2-yl]-urea]
5 | 237 to 238 | 171 | dual activity | 0.008 | 0.733 |  | Cn1cc(-c2cnc3ccc(NC(=O)NCCc4ccccc4)nc3c2)cn1 [Compound 5, 1-[7-(1-Methyl-1H-pyrazol-4-yl)-[1,5]naphthyridin-2-yl]-3-phenethyl-urea]
6 | 237 to 238 |  |  |  |  |  | CCNC(=S)Nc1ccc2ncc(Nc3cc(OC)c(OC)c(OC)c3)cc2n1 [Compound 6, 1-Ethyl-3-[7-(3,4,5-trimethoxy-phenylamino)-[1,5]naphthyridin-2-yl]-thiourea]
7 | 215 to 216 | 136 |  | ~100 | > 100 |  | CCNC(=O)Nc1ccnc2cc(-c3ccc(OC)c(OC)c3)cnc12 [Compound 7, 1-[7-(3,4-Dimethoxy-phenyl)-[1,5]naphthyridin-4-yl]-3-ethyl-urea]
8 | 215 to 216 | 714 |  | ~100 | > 100 |  | COc1ccc(-c2cnc3c(NC(=O)NC(C)(C)C)ccnc3c2)cc1OC [Compound 8, 1-tert-Butyl-3-[7-(3,4-dimethoxy-phenyl)-[1,5]naphthyridin-4-yl]-urea]
9 | 202 to 203 | 370 |  | > 31.6 | ~100 |  | CCNC(=O)Nc1ccnc2cc(-c3ccc(O)c(OC)c3)cnc12 [Compound 9, 1-Ethyl-3-[7-(4-hydroxy-3-methoxy-phenyl)-[1,5]naphthyridin-4-yl]-urea]
10 | 215 to 216 | 38 |  | > 31.6 | > 100 | < 100 | CCNC(=O)Nc1ccnc2cc(-c3cnn(C)c3)cnc12 [Compound 10, 1-Ethyl-3-[7-(1-methyl-1H-pyrazol-4-yl)-[1,5]naphthyridin-4-yl]-urea]
11 | 215 to 216 | 112 |  | 12.6 | > 31.6 |  | Cn1cc(-c2cnc3c(NC(=O)NC(C)(C)C)ccnc3c2)cn1 [Compound 11, 1-tert-Butyl-3-[7-(1-methyl-1H-pyrazol-4-yl)-[1,5]naphthyridin-4-yl]-urea]
12 | 158 to 159 | 1580 |  | > 31.6 | > 100 |  | COc1cc(-c2cnc3c(NC(=O)NC(C)(C)C)ccnc3c2)ccc1O [Compound 12, 1-tert-Butyl-3-[7-(4-hydroxy-3-methoxy-phenyl)-[1,5]naphthyridin-4-yl]-urea]
13 | > 300 | 500 |  | 11 | > 100 |  | CC(C)(C)NC(=O)Nc1ccnc2cc(-c3cc(Cl)c(O)c(Cl)c3)cnc12 [Compound 13, 1-tert-Butyl-3-[7-(3,5-dichloro-4-hydroxy-phenyl)-[1,5]naphthyridin-4-yl]-urea]
14 | 235 to 236 | 108 |  | 18.1 | > 100 |  | COc1cc(-c2cnc3c(NC(=O)NC4CC4)ccnc3c2)ccc1O [Compound 14, 1-Cyclopropyl-3-[7-(4-hydroxy-3-methoxy-phenyl)-[1,5]naphthyridin-4-yl]-urea]
15 | > 300 | 227 |  | 7.85 | > 31.6 |  | CCNC(=O)Nc1ccnc2cc(-c3cc(Cl)c(O)c(Cl)c3)cnc12 [Compound 15, 1-[7-(3,5-Dichloro-4-hydroxy-phenyl)-[1,5]naphthyridin-4-yl]-3-ethyl-urea]
16 | 213 to 214 | 3850 |  | > 31.6 | > 31.6 |  | CCNC(=O)Nc1ccnc2cc(-c3cc(C)c(O)c(C)c3)cnc12 [Compound 16, 1-Ethyl-3-[7-(4-hydroxy-3,5-dimethyl-phenyl)-[1,5]naphthyridin-4-yl]-urea]
17 | 215 to 216 | 48 |  | 2.17 | > 100 | < 100 | Cn1cc(-c2cnc3c(NC(=O)NC4CCC4)ccnc3c2)cn1 [Compound 17, 1-Cyclobutyl-3-[7-(1-methyl-1H-pyrazol-4-yl)-[1,5]naphthyridin-4-yl]-urea]
18 | 223 to 224 | 13 |  | 7.45 | > 100 | < 100 | Cn1cc(-c2cnc3c(NC(=O)NC4CC4)ccnc3c2)cn1 [Compound 18, 1-Cyclopropyl-3-[7-(1-methyl-1H-pyrazol-4-yl)-[1,5]naphthyridin-4-yl]-urea]
19 | 216 to 217 | 26 |  | 9.74 | > 100 | < 100 | CCCNC(=O)Nc1ccnc2cc(-c3cnn(C)c3)cnc12 [Compound 19, 1-[7-(1-Methyl-1H-pyrazol-4-yl)-[1,5]naphthyridin-4-yl]-3-propyl-urea]
20 | > 300 | 129 |  | 27.3 | > 100 |  | Cn1cc(-c2cnc3c(NC(=O)NCC(F)(F)F)ccnc3c2)cn1 [Compound 20, 1-[7-(1-Methyl-1H-pyrazol-4-yl)-[1,5]naphthyridin-4-yl]-3-(2,2,2-trifluoro-ethyl)-urea]
21 | 185 to 186 | 141 |  | 16.9 | > 31.6 |  | Cn1cc(-c2cnc3c(NC(=O)NCCCCc4ccccc4)ccnc3c2)cn1 [Compound 21, 1-[7-(1-Methyl-1H-pyrazol-4-yl)-[1,5]naphthyridin-4-yl]-3-(4-phenyl-butyl)-urea]
22 | 200 to 201 | 354 |  | > 31.6 | > 100 |  | Cn1cc(-c2cnc3c(NC(=O)NC4CCCCC4)ccnc3c2)cn1 [Compound 22, 1-Cyclohexyl-3-[7-(1-methyl-1H-pyrazol-4-yl)-[1,5]naphthyridin-4-yl]-urea]
23 | 294 to 295 | 1260 |  | > 100 | > 100 |  | Cn1cc(-c2cnc3c(NC(=O)Nc4ccccc4)ccnc3c2)cn1 [Compound 23, 1-[7-(1-Methyl-1H-pyrazol-4-yl)-[1,5]naphthyridin-4-yl]-3-phenyl-urea]
24 |  | 260 | dual activity | 0.096 | 0.429 |  | Cn1cc(-c2cnc3ccc(NC(=O)NC(C)(C)C)nc3c2)cn1 [Compound 26, 1-tert-Butyl-3-[7-(1-methyl-1H-pyrazol-4-yl)-[1,5]naphthyridin-2-yl]-urea]
25 |  | 1140 | dual activity | 0.157 | 0.191 |  | Cn1cc(-c2cnc3ccc(NC(=O)Nc4ccccc4)nc3c2)cn1 [Compound 27, 1-[7-(1-Methyl-1H-pyrazol-4-yl)-[1,5]naphthyridin-2-yl]-3-phenyl-urea]
26 | 257 to 258 | 579 | dual activity |  |  |  | Cn1cc(-c2cnc3ccc(NC(=O)NCc4ccccc4)nc3c2)cn1 [Compound 28, 1-Benzyl-3-[7-(1-methyl-1H-pyrazol-4-yl)-[1,5]naphthyridin-2-yl]-urea]
27 |  | 137 |  | 2.17 | > 100 |  | CC(C)NC(=O)Nc1ccnc2cc(-c3cnn(C)c3)cnc12 [Compound 30, 1-Isopropyl-3-[7-(1-methyl-1H-pyrazol-4-yl)-[1,5]naphthyridin-4-yl]-urea]

From patent US8461178B2, “Naphthyridine derivatives and the use thereof as kinase inhibitors” (Aeterna Zentaris GmbH, priority 2009, dated 2013)
